Measured values reported in patent US12202866B2, “Therapeutic nanoconjugates and uses thereof” (UNIVERSITAT AUTÒNOMA DE BARCELONA (UAB), priority 2017, dated 2025).
Marks after values point to notes of the source that are not given here.

Tests used:
[1] = system: CXCR4^+ SW1417 CRC metastases; assay: Prevention of metastasis protocol, SC+ORT CXCR4+ SW1417 CRC model; assay type: in vivo, NOD/SCID mice
Method: Thus, a SC+ORT model, was produced: when SC tumors reached a volume of 700 mm3, mice were sacrificed by cervical dislocation and tumours were excised, discarding the necrotic areas. Three hundred mg of viable tumour tissue was then cut into pieces and disaggregated in a mix of 0.05% trypsin (Invitrogen) and 100 mg/ml DNase (Sigma-Aldrich). The mix was pipetted 30 times, using a 10 ml pipette, and incubated for 10 minutes at 37° C. with shaking. It was then re-pipetted 30 times, using 10 ml, 3 ml and 1 ml pipettes, and re-incubated for 5 minutes at 37° C. with shaking. This re-pipetting step was then repeated. The obtained SW1417 single-cell suspension was filtered through a cell strainer and centrifuged at 1,000 g for 10 minutes before counting the cells. Then 2×10^6 cells, […] resuspended in 50 μl of media, were microinjected in the cecum of each mouse, following the method described above.
The SC+ORT metastatic CRC model developed in NOD/SCID mice was used to evaluate the capacity of the nanoconjugate for metastasis prevention.
(§1) At necropsy, the number and size of visible metastases in the organs where dissemination is expected in colorectal cancer (lymph nodes, liver, lung and peritoneum) were recorded for each mouse in all compared groups. Also the number of metastatic foci that emitted bioluminiscence (derived from the SW1417-luci CRC cells) were counted ex vivo in the target organs for metastasis, using the IVIS® 200-Spectrum (Perkin-Elmer). Samples for histopathological and immunohistochemical analyses were collected and processed. Two independent observers analyzed H&E stained samples to count the number and measure the size of all observed metastatic foci in three (metastasis prevention experiment) or six (regression of metastasis experiment) sections of each organ in each mouse. The images were taken and the measurements were performed with an Olympus microscope with the CellD Olympus software (v3.3). […] The obtained results were used to study a possible correlation between CXCR4^+ CCF and antimetastatic effect at the different sites.
(§2) In order to analyze differences between control and experimental groups of affected mice in metastatic rates at the different organs, Fisher's exact test was used. The Mann-Whitney test was used to compare number and size of metastatic foci in the affected organs among groups. All quantitative values were expressed as mean±SE and the statistical tests were performed using SPSS version 11.0 (IBM, New York, USA). Differences among groups was considered significant at a p<0.05.

[2] = system: subcutaneous CXCR4^+ SW1417 CRC tumor; assay: Induction of DNA double strand breaks and apoptosis in tumor tissue, SC SW1417 model; assay type: in vivo, mouse; conditions: for number of apoptotic figures in tumor tissue (Hoechst nuclear condensation or defragmentation): 24 h after injection; for number of DSBs foci in tumors (anti-gH2AX IHC): five hours after treatment
Method: (§3) The SC SW1417 mouse model was used to determine the capacity of the nanoconjugate to induce DNA damage and apoptosis in tumor tissue, as well as the kinetics of CXCR4 expression in the membrane of tumor cells after treatment, regarding the fraction of CXCR4 expressing tumor cells and their intensity, since CXCR4^+ are the target cells for the nanoconjugate. […] The mice had been treated with equimolecular dosages of T22-GFP-H6, free oligo-FdU or Buffer, in which also were determined the levels of CXCR4 expression in tumor tissue at the different time points.

[3] = system: CXCR4^+ cancer cells in SC SW1417 CRC tumor; assay: CXCR4+ cancer cell fraction in tumor tissue along time after single dose (anti-CXCR4 IHC); assay type: in vivo, mouse; conditions: 24 h, 48 h, 72 h after equimolecular dose
Method: as §3

[4] = system: CXCR4^+ SW1417 CRC metastases; assay: Regression of established metastasis protocol, orthotopic CXCR4+ SW1417 CRC model; assay type: in vivo, Swiss nude mice; conditions: for LN foci, mean foci number per mouse / Lung foci, mean foci number per mouse: Regression protocol, 6 histology sections, mean + SE; for LN foci, mean foci number per mouse: 20 μg (or equimolecular) q3d x10 i.v.
Method: Swiss nude mice were anesthetized with ketamine and xylazine, exteriorizing their cecum by a laparotomy. 2×106 CXCR4^+ SW1417-luci CRC cells (expressing luciferase, to allow ex vivo bioluminescent identification of metastatic foci in affected organs at the end of therapy) were suspended in […] of modified Eagle's medium, and loaded into a sterile micropipette. The cell suspension was slowly injected, under a binocular lens, with an approximate 30° angle and its tip introduced 5 mm into the cecal wall. Afterward, a slight pressure was applied with a cotton stick at approximately 2 mm from the injection point in the direction of the pipette axis. The pipette was pulled out and the area around the injection cleaned with 3% iodine. After injection, the gut was returned to the abdominal cavity and closed with surgical staples.
The orthotopic and metastatic CRC model developed in Swiss nude mice was employed to perform experiments of metastasis regression. […] The experiment was finished when the first animal of the buffer-treated-group had to be euthanized. See below the studied parameters to evaluate the antimetastatic effect.
as §1, §2

[5] = system: subcutaneous CXCR4^+ SW1417 CRC tumor; assay: Tumor uptake and tumor cell internalization in subcutaneous CXCR4+ SW1417 CRC model; conditions: fluorescence emission
Method: (§4) SC model was used to assess tumor uptake and nanoconjugate internalization and in vivo competition studies using co-administration of the CXCR4 antagonist AMD3100.
(§5) Two hours, 5 h and 24 h after the administration, the mouse was euthanized to resect the tumor and register ex vivo the intensity of the green fluorescence emitted by the nanoconjugated that biodistributed to tumor tissue using the IVIS® 200-Spectrum (Perkin Elmer, MA, USA). Following, tumor tissue samples were taken, processed and performed immunohistochemistry (IHC) to determine the presence or absence of the corresponding nanoconjugate into cytosol of tumor cells using an anti-GFP antibody (1:300; Santa-Cruz Biotechnology, CA, USA). […] Apoptosis was assessed determining nuclear condensation with Hoechst staining of tumor tissue sections and counting the number of condensed or defragmented nuclei in five high-power magnification fields in different sections for each tumor using the Olympus DP73 digital camera and the CellD Imaging 3.3 programme (Olympus, Tokyo, Japan).

CXCR4^+ SW1417 CRC cells = assay: Internalization in CXCR4+ SW1417 CRC cells (flow cytometry, AMD3100 competition); assay type: cell-based, human; conditions: antagonist 1:10 protein:antagonist molar ratio, 1 h before nanoconjugate
Method: CXCR4+ SW1417-luc CRC cells were cultured in modified Eagle's medium (Gibco, Rockville, MD) supplemented with 10% fetal calf serum (Gibco), and incubated at 37° C. and 5% CO2 in a humidified atmosphere. […] Fluorescence emission was measured with a D detector (530/30 nm band pass filter). To assess specificity for CXCR4 receptor-mediated internalization, competition studies were performed incubating CRC SW1417 cells with the CXCR4 antagonist AMD3100 (Sigma Aldrich) in a 1:10 (protein:antagonist) molar ratio for 1 h before exposure to the nanoconjugate at […] for an additional hour.
The cells were washed in phosphate-buffered saline (Sigma-Aldrich). Live cells were recorded by TCS-SP5 confocal laser scanning microscopy (Leica Microsystems, Heidelberg, Germany) using a Plan Apo 63×/1.4 (oil HC×PL APO lambda blue) objective as described. To determine particle localization inside the cell, stacks of 10-20 sections forevery 0.5 μm of cell thickness were collected and three-dimensional models were generated using Imaris version 6.1.0 software (Bitplane, Zurich, Switzerland).

[6] = system: CXCR4^+ HeLa human cervical carcinoma cell line; assay: Internalization in CXCR4+ HeLa cells (flow cytometry, AMD3100 competition); assay type: cell-based; conditions: pre-treatment, 1:10 molar ratio
Method: To assess specificity for CXCR4 receptor mediated internalization, competition studies incubating CXCR4^+ HeLa cells with the CXCR4 antagonist AMD3100 (octahydrochloride hydrate, Sigma-Aldrich) were performed in a 1:10 (Protein:antagonist) molar ratio for 1 h before exposure to the nanoconjugate, as previously described for the T22-GFP-H6.
Nuclei were labeled with Hoechst 33342 (Life Technologies) and plasma membranes CellMask™ Deep Red (Life Technologies).

[7] = Nanoparticle size by dynamic light scattering; assay type: physicochemical; conditions: Example 2; unit not given
Method: The volume and size distribution of the nanoparticles was determined by dynamic light scattering at 633 nm (Zetasizer Nano ZS, Malvern Instruments Limited, Malvern, Worcestershire, UK). Nanoconjugate size was also measured using purified samples, diluted to 0.2 mg/mL and contrasted by evaporation of 1 nm platinum layer in carbon-coated grids, before being visualized in a Hitachi H-7000 transmission electron microscope (TEM), as described33.

[8] = system: subcutaneous CXCR4^+ SW1417 CRC tumor; conditions: mouse, in vivo, iv
Method: as §4, §5

[9] = Prevention protocol, 3 histology sections, mean + SE

Q: Which “LN foci, mean foci number per mouse” value ([1]; Prevention protocol, 20 μg (or equimolecular) q3d x12 i.v., 3 histology sections, mean + SE) does the source give for “5′-(FdU)5-3′ [free oligo-FdU, reference compound]” here?
A: 3.1 ± 0.4

Q: And the “Liver foci, mean foci number per mouse” value [1, 9]?
A: 1.0 ± 0.3 ^c

Q: What about the “Lung foci, mean foci number per mouse” value [1, 9] of the same compound?
A: 4.5 ± 1.6 ^e

Q: And the “Peritoneal foci, mean foci number per mouse” value [1, 9]?
A: 2.8 ± 1.0 ^g

Q: And the “total or mean foci number at any site (LN, liver, lung, peritoneum)” value ([1]; compared to buffer-treated animals)?
A: did not reduce

Q: What about the “Metastasis Liver [%]” value ([1]; end of prevention experiment) of the same compound?
A: [55]^a %

Q: What about the “Metastasis Liver, affected/total mice” value ([1]; end of prevention experiment) of the same compound?
A: 6/11

Q: And the “Metastasis Lung [%]” value ([1]; end of prevention experiment)?
A: [55]^c %

Q: And the “Metastasis Lung, affected/total mice” value ([1]; end of prevention experiment)?
A: 6/11

Q: What about the “Metastasis Lymph nodes [%]” value ([1]; end of prevention experiment) of the same compound?
A: [100] %

Q: What about the “Metastasis Lymph nodes, affected/total mice” value ([1]; end of prevention experiment) of the same compound?
A: 11/11

Q: And the “Metastasis Peritoneal [%]” value ([1]; end of prevention experiment)?
A: [45] %

Q: What about the “Metastasis Peritoneal, affected/total mice” value ([1]; end of prevention experiment) of the same compound?
A: 5/11

Q: What about the “remaining CXCR4^+ CCF in liver, lung and peritoneal metastatic tissue (anti-CXCR4 IHC)” value ([1]; end of prevention experiment) of the same compound?
A: does not reduce

Q: And the “Metastasis Size, Liver” value ([1]; mean foci size)?
A: 9.6 μm^2 × 10^−3

Q: And the “Metastasis Size, Lung” value ([1]; mean foci size)?
A: 17.9 μm^2 × 10^−3

Q: And the “Metastasis Size, Lymph nodes” value ([1]; mean foci size)?
A: 77.0 μm^2 × 10^−3

Q: And the “Metastasis Size, Peritoneal” value ([1]; mean foci size)?
A: 304.8 μm^2 × 10^−3

Q: And the “Primary tumor Positive/#Mice” value ([1]; mice bearing a primary tumor out of total mice per group)?
A: 11/11

Q: And the “Primary tumor [%]” value ([1]; percent of mice bearing a primary tumor)?
A: [100] %

Q: And the “primary tumor growth by in vivo bioluminescence emission” value ([1]; prevention experiment, compared to buffer-treated mice)?
A: no significant inhibition

Q: And the “number of apoptotic figures in tumor tissue (Hoechst nuclear condensation or defragmentation)” value [2]?
A: 7.1±0.6

Q: What about the “number of DSBs foci in tumors (anti-gH2AX IHC)” value [2] of the same compound?
A: 13.4±0.7

Q: And the “CXCR4+ CCF in tumor tissue along time” value [3]?
A: remained similar to its basal level along time

Q: What about the “LN foci, mean foci number per mouse” value [4] of the same compound?
A: 0.8 ± 0.2

Q: What about the “Lung foci, mean foci number per mouse” value [4] of the same compound?
A: 2.0 ± 0.7 ^j,m

Q: And the “primary tumor growth by in vivo bioluminescence emission” value ([4]; regression experiment, compared to buffer treated animals)?
A: significantly inhibited tumor growth

Q: For `c1cc(CN2CCCNCCNCCCNCC2)ccc1CN1CCCNCCNCCCNCC1` [AMD3100, reference compound], which “block of T22-GFP-H6-FdU tumor uptake by CXCR4 antagonist given prior to the nanoconjugate” value [5] is on record?
A: completely blocked

Q: And the “block of T22-GFP-H6-FdU internalization by CXCR4 antagonist” value (CXCR4^+ SW1417 CRC cells)?
A: completely blocked

Q: And the “block of T22-GFP-H6-FdU internalization in HeLa cells by CXCR4 antagonist pre-treatment” value [6]?
A: Complete internalization block

Q: Which “number of apoptotic figures in tumor tissue (Hoechst nuclear condensation or defragmentation)” value [2] does the source give for “T22-GFP-H6: targeting vector: fusion protein nanoparticle of peptide T22 (CXCR4 ligand), green fluorescent protein and a Histidine tail” here?
A: 3.0±0.3

Q: And the “number of DSBs foci in tumors (anti-gH2AX IHC)” value [2]?
A: undetectable

Q: What about the “size determined by dynamic light scattering” value [7] of the same compound?
A: 13.4+0.11

Q: And the “LN foci, mean foci number per mouse” value [4]?
A: 1.1 ± 0.2 ^i

Q: What about the “Lung foci, mean foci number per mouse” value [4] of the same compound?
A: 1.7 ± 0.6 ^l

Q: What about the “internalization into CXCR4^+ tumor cell cytosol by anti-GFP immunohistochemistry” value [8] of the same compound?
A: internalized
